Test results: patent US12077555B2, “STAT degraders and uses thereof” (Kymera Therapeutics, Inc., priority 2019, dated 2024)

Target: STAT3 (Homo sapiens, UniProt P40763)
Assay: Quantitation of STAT3 degradation in A549 cells by Western blot
Format: cell-based
Set-up: expressed in transfected cells; host or cells: A549
Conditions: read-out: A549 DC50, 24 hours, tested up to 30 μM or 10 μM
In short: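 A549 cells treated 24 h at 37° C with compound at 30, 10, 3, 1, 0.3 μM or DMSO; RIPA lysates analysed by SDS-PAGE/Western blot for total STAT3, β-actin as loading control, LI-COR fluorescence read-out. DC50 derived by sigmoidal fit of dose-dependent degradation.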

STAT3, sequence (P40763 whole entry): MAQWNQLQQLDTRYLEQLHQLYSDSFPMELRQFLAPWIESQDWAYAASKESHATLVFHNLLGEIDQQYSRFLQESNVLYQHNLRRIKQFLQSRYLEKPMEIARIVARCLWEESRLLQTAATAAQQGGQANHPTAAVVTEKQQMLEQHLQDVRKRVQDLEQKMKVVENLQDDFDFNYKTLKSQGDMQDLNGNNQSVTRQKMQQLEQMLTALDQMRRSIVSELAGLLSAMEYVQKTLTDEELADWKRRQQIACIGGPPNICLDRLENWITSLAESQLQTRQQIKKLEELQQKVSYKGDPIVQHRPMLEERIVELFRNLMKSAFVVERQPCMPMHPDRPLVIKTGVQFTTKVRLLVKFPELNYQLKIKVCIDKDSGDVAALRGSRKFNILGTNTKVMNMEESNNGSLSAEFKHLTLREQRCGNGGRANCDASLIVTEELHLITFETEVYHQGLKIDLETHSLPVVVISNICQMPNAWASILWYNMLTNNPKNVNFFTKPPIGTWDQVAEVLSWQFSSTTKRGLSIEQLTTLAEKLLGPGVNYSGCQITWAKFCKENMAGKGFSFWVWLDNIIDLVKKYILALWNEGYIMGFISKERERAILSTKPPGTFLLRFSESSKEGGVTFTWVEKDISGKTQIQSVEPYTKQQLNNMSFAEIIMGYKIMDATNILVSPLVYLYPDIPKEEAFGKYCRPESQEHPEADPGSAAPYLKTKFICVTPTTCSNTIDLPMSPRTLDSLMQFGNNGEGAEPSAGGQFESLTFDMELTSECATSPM

SMILES | DC50 [µM]
Cn1c(=O)n(C2CCC(=O)NC2=O)c2ccc(C#CCCCCC(=O)N3CC[C@H]4CC[C@@H](C(=O)N[C@@H](CCC(N)=O)C(=O)NC(c5ccccc5)c5ccccc5)N4C(=O)[C@@H](NC(=O)c4cc5cc(C(=O)P(=O)(O)O)ccc5[nH]4)C3)cc21 (stereo partly drawn) [Compound I-99, 2-[[(5S,8S,10aR)-8-[[(1S)-3-carbamoyl-1-(diphenylmethylcarbamoyl)propyl]carbamoyl]-3-[7-[1-(2,6-dioxopiperidin-3-yl)-3-methyl-2-oxo-1,3-benzodiazol-5-yl]hept-6-ynoyl]-6-oxo-octahydropyrrolo[1,2-a][1,5]diazocin-5-yl]carbamoyl]-1H-indole-5-carbonylphosphonic acid] | < 30
Cc1ncsc1-c1ccc(CNC(=O)[C@@H]2C[C@@H](O)CN2C(=O)[C@@H](NC(=O)CCCCCCc2ccc(CO[C@H](C)[C@H](CCC(N)=O)NC(=O)[C@@H]3Cc4cccc5c4N3C(=O)[C@@H](NC(=O)c3cc4cc(C(=O)P(=O)(O)O)ccc4[nH]3)CC5)cc2)C(C)(C)C)cc1 [Compound I-100] | < 30
Cc1ncsc1-c1ccc(CNC(=O)C2C[C@@H](O)CN2C(=O)[C@@H](NC(=O)CCCc2ccc(CO[C@H](C)[C@H](CCC(N)=O)NC(=O)[C@@H]3Cc4cccc5c4N3C(=O)[C@@H](NC(=O)c3cc4cc(C(=O)P(=O)(O)O)ccc4[nH]3)CC5)cc2)C(C)(C)C)cc1 (some centres unmarked) [Compound I-101] | < 30
Cn1c(C(=O)N[C@H]2CN(C(=O)CCCCCC#Cc3cccc4c3CN(C3CCC(=O)NC3=O)C4=O)CC[C@H]3CC[C@@H](C(=O)N[C@@H](CCC(N)=O)C(=O)NC(c4ccccc4)c4ccccc4)N3C2=O)cc2cc(C(=O)P(=O)(O)O)ccc21 (stereo partly drawn) [Compound I-102, diammonium 2-[[(5S,8S,10aR)-8-[[(1S)-3-carbamoyl-1-(diphenylmethylcarbamoyl)propyl]carbamoyl]-3-[8-[2-(2,6-dioxopiperidin-3-yl)-1-oxo-3H-isoindol-4-yl]oct-7-ynoyl]-6-oxo-octahydropyrrolo[1,2-a][1,5]diazocin-5-yl]carbamoyl]-1-methylindole-5-carbonylphosphonate] | < 30
Cn1c(=O)n(C2CCC(=O)NC2=O)c2ccc(C#CCCCCCC(=O)N3CC[C@H]4CC[C@@H](C(=O)N[C@@H](CCC(N)=O)C(=O)NC(c5ccccc5)c5ccccc5)N4C(=O)[C@@H](NC(=O)c4cc5cc(C(=O)P(=O)(O)O)ccc5[nH]4)C3)cc21 (stereo partly drawn) [Compound I-104, 2-[[(5S,8S,10aR)-8-[[(1S)-3-carbamoyl-1-(diphenylmethylcarbamoyl)propyl]carbamoyl]-3-[8-[1-(2,6-dioxopiperidin-3-yl)-3-methyl-2-oxo-1,3-benzodiazol-5-yl]oct-7-ynoyl]-6-oxo-octahydropyrrolo[1,2-a][1,5]diazocin-5-yl]carbamoyl]-1H-indole-5-carbonylphosphonic acid] | < 30
Cn1c(=O)n(C2CCC(=O)NC2=O)c2ccc(C#CCCCC(=O)N3CC[C@H]4CC[C@@H](C(=O)N[C@@H](CCC(N)=O)C(=O)NC(c5ccccc5)c5ccccc5)N4C(=O)[C@@H](NC(=O)c4cc5cc(C(=O)P(=O)(O)O)ccc5[nH]4)C3)cc21 (stereo partly drawn) [Compound I-105, 2-[[(5S,8S,10aR)-8-[[(1S)-3-carbamoyl-1-(diphenylmethylcarbamoyl)propyl]carbamoyl]-3-[6-[1-(2,6-dioxopiperidin-3-yl)-3-methyl-2-oxo-1,3-benzodiazol-5-yl]hex-5-ynoyl]-6-oxo-octahydropyrrolo[1,2-a][1,5]diazocin-5-yl]carbamoyl]-1H-indole-5-carbonylphosphonic acid] | < 30
Cn1c(=O)n(C2CCC(=O)NC2=O)c2ccc(CCCCCC(=O)N3CC[C@H]4CC[C@@H](C(=O)N[C@@H](CCC(N)=O)C(=O)NC(c5ccccc5)c5ccccc5)N4C(=O)[C@@H](NC(=O)c4cc5cc(C(=O)P(=O)(O)O)ccc5[nH]4)C3)cc21 (stereo partly drawn) [Compound I-107, 2-[[(5S,8S,10aR)-8-[[(1S)-3-carbamoyl-1-(diphenylmethylcarbamoyl)propyl]carbamoyl]-3-[6-[1-(2,6-dioxopiperidin-3-yl)-3-methyl-2-oxo-1,3-benzodiazol-5-yl]hexanoyl]-6-oxo-octahydropyrrolo[1,2-a][1,5]diazocin-5-yl]carbamoyl]-1H-indole-5-carbonylphosphonic acid] | < 30
C/C(=C\C(=O)N[C@H]1CCc2cccc3c2N(C1=O)[C@H](C(=O)N[C@@H](CCC(N)=O)[C@@H](C)OCCCc1ccc2c(c1)n(C)c(=O)n2C1CCC(=O)NC1=O)C3)c1ccc(C(F)(F)P(=O)(O)O)cc1 (stereo partly drawn) [Compound I-110, diammonium [4-[(1E)-1-[[(2S,11S)-2-[[(3S,4R)-1-carbamoyl-4-[3-[1-(2,6-dioxopiperidin-3-yl)-3-methyl-2-oxo-1,3-benzodiazol-5-yl]propoxy]pentan-3-yl]carbamoyl]-12-oxo-1-azatricyclo[6.4.1.0^[4,13]]trideca-4(13),5,7-trien-11-yl]carbamoyl]prop-1-en-2-yl]phenyl]difluoromethylphosphonate] | > 30
C/C(=C\C(=O)N[C@H]1CN(C(=O)CCCCCCc2ccc3c(c2)n(C)c(=O)n3C2CCC(=O)NC2=O)CC[C@H]2CC[C@@H](C(=O)N[C@@H](CCC(N)=O)C(=O)NC(c3ccccc3)c3ccccc3)N2C1=O)c1ccc(C(F)(F)P(=O)(O)O)cc1 (some centres unmarked) [Compound I-112] | < 30
C/C(=C\C(=O)N[C@H]1CN(C(=O)CCCCCCCc2ccc3c(c2)n(C)c(=O)n3C2CCC(=O)NC2=O)CC[C@H]2CC[C@@H](C(=O)N[C@@H](CCC(N)=O)C(=O)NC(c3ccccc3)c3ccccc3)N2C1=O)c1ccc(C(F)(F)P(=O)(O)O)cc1 (stereo partly drawn) [Compound I-113, [4-[(1E)-1-[[(5S,8S,10aR)-8-[[(1S)-3-carbamoyl-1-(diphenylmethylcarbamoyl)propyl]carbamoyl]-3-[8-[1-(2,6-dioxopiperidin-3-yl)-3-methyl-2-oxo-1,3-benzodiazol-5-yl]octanoyl]-6-oxo-octahydropyrrolo[1,2-a][1,5]diazocin-5-yl]carbamoyl]prop-1-en-2-yl]phenyl]difluoromethylphosphonic acid] | > 30
C/C(=C\C(=O)N[C@H]1CN(C(=O)CCCCCc2ccc3c(c2)n(C)c(=O)n3C2CCC(=O)NC2=O)CC[C@H]2CC[C@@H](C(=O)N[C@@H](CCC(N)=O)C(=O)NC(c3ccccc3)c3ccccc3)N2C1=O)c1ccc(C(F)(F)P(=O)(O)O)cc1 (stereo partly drawn) [Compound I-114, [4-[(1E)-1-[[(5S,8S,10aR)-8-[[(1S)-3-carbamoyl-1-(diphenylmethylcarbamoyl)propyl]carbamoyl]-3-[6-[1-(2,6-dioxopiperidin-3-yl)-3-methyl-2-oxo-1,3-benzodiazol-5-yl]hexanoyl]-6-oxo-octahydropyrrolo[1,2-a][1,5]diazocin-5-yl]carbamoyl]prop-1-en-2-yl]phenyl]difluoromethylphosphonic acid] | > 30
C/C(=C\C(=O)N[C@H]1CN(C(=O)CCCCCC#Cc2cccc3c2CN(C2CCC(=O)NC2=O)C3=O)CC[C@H]2CC[C@@H](C(=O)N[C@@H](CCC(N)=O)C(=O)NC(c3ccccc3)c3ccccc3)N2C1=O)c1ccc(C(F)(F)P(=O)(O)O)cc1 (stereo partly drawn) [Compound I-115, ((4-((E)-4-(((5S,8S,10aR)-8-(((S)-5-amino-1-(benzhydrylamino)-1,5-dioxopentan-2-yl)carbamoyl)-3-(8-(2-(2,6-dioxopiperidin-3-yl)-1-oxoisoindolin-4-yl)oct-7-ynoyl)-6-oxodecahydropyrrolo[1,2-a][1,5]diazocin-5-yl)amino)-4-oxobut-2-en-2-yl)phenyl)difluoromethyl)phosphonic acid] | < 30
Cc1ncsc1-c1ccc(CNC(=O)[C@@H]2C[C@@H](O)CN2C(=O)[C@@H](NC(=O)CCCCCc2ccc(CO[C@H](C)[C@H](CCC(N)=O)NC(=O)[C@@H]3Cc4cccc5c4N3C(=O)[C@@H](NC(=O)c3cc4cc(C(=O)P(=O)(O)O)ccc4[nH]3)CC5)cc2)C(C)(C)C)cc1 [Compound I-117, (2-(((3S,6S)-6-(((2R,3S)-6-amino-2-((4-(6-(((S)-1-((2S,4R)-4-hydroxy-2-((4-(4-methylthiazol-5-yl)benzyl)carbamoyl)pyrrolidin-1-yl)-3,3-dimethyl-1-oxobutan-2-yl)amino)-6-oxohexyl)benzyl)oxy)-6-oxohexan-3-yl)carbamoyl)-4-oxo-1,2,3,4,6,7-hexahydroazepino[3,2,1-hi]indol-3-yl)carbamoyl)-1H-indole-5-carbonyl)phosphonic acid] | < 30
C[C@@H](OCc1ccc(CCCCCCc2ccc3c(c2)n(C)c(=O)n3C2CCC(=O)NC2=O)cc1)[C@H](CCC(N)=O)NC(=O)[C@@H]1Cc2cccc3c2N1C(=O)[C@@H](NC(=O)c1cc2cc(C(=O)P(=O)(O)O)ccc2[nH]1)CC3 (stereo partly drawn) [Compound I-118, diammonium 2-[[(2S,11S)-2-[[(3S,4R)-1-carbamoyl-4-[(4-[6-[1-(2,6-dioxopiperidin-3-yl)-3-methyl-2-oxo-1,3-benzodiazol-5-yl]hexyl]phenyl)methoxy]pentan-3-yl]carbamoyl]-12-oxo-1-azatricyclo[6.4.1.0^[4,13]]trideca-4(13),5,7-trien-11-yl]carbamoyl]-1H-indole-5-carbonylphosphonate] | > 30
